Where two headings read alike, the source gives them in different places.
What was measured:
KDR (h) = KDR (h) (Homo sapiens, UniProt P35968); test: KDR (VEGFR2) (enzymatic assay), TR-FRET; assay type: biochemical; conditions: 3 μM ATP; pIC50 = -log IC50 (M); read-out: VEGFR KDR pIC50 (converted)
Method: KDR (VEGFR2) (Enzymatic Assay)
In a final reaction volume of 30 μL, KDR (h) (150 ng/ml) was incubated with 50 mM HEPES pH 7.5, 6 mM MnCl2, 1 mM DTT, 0.1 mM Na3VO4, 0.01% Triton-X-100, 500 nM Btn-Flt3 and 3 μM ATP in the presence of compound (1% DMSO final). After incubation for 120 minutes at room temperature the reaction was stopped with 2.27 nM EU-anti P-Tyr, 7 mM EDTA, 31.25 nM SA-XL-665 and 0.02% BSA which was present for 60 minutes at room temperature. Time-Resolved Fluorescence Resonance Energy Transfer (TR-FRET) signal (ex340 nm. Em 620 nm, em 655 nm) was measured afterwards and results are expressed in RFU (Relative Fluorescence Units). In this assay, the inhibitory effect of different compound concentrations (range 10 μM to 0.1 nM) was determined and used to calculate an IC50 (M) and pIC50 (−log IC50) value.

FGFR1 (h) = FGFR1 (h) (Homo sapiens, UniProt P11362); test: FGFR1 (enzymatic assay), TR-FRET; assay type: biochemical
FGFR1 (h), sequence (P11362 22-822): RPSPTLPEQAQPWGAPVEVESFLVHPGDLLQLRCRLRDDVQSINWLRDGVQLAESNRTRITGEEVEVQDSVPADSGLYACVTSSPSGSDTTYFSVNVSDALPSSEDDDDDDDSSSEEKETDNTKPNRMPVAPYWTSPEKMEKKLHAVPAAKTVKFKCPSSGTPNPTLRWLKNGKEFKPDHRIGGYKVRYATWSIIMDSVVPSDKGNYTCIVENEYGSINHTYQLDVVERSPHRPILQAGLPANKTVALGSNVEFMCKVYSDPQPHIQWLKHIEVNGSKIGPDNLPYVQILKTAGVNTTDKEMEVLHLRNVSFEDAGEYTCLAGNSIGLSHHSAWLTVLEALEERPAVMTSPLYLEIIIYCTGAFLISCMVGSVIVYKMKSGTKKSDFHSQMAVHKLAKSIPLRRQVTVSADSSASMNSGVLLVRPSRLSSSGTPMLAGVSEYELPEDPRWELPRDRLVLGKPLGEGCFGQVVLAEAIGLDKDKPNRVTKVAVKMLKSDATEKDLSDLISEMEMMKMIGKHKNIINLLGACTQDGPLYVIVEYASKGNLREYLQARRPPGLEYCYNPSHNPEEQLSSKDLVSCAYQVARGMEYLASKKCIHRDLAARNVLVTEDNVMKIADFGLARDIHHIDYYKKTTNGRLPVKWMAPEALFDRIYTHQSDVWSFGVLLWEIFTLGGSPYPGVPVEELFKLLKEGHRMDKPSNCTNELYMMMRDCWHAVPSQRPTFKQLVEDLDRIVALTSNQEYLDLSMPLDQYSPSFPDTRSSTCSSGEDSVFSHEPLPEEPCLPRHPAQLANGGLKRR

[1] = target: T1, Ba/F3-KDR-transfected cells (Homo sapiens, UniProt P35968, cells depend on it, form not given); test: Ba/F3-KDR (minus IL3 or plus IL3) cellular proliferation assay; assay type: cell-based; conditions: 24 hours, Alamar Blue
T1 construct: BAF3-KDR (MIN IL3 pIC50); other: minus IL3; 24 hours, Alamar Blue
Method: Ba/F3-KDR (Minus IL3 or Plus IL3) (Cellular Proliferation Assay)
(§1) In a 384 well plate, 100 nl of compound dilution in DMSO was sprayed before adding 50 μl cell culture medium (phenol red free RPMI-1640, 10% FBS, 2 mM L-Glutamine and 50 μg/ml Gentamycin) containing 20000 cells per well of Ba/F3-KDR-transfected cells. Cells were put in an incubator at 37° C. and 5% CO2. After 24 hours, 10 μl of Alamar Blue solution (0.5 mM K3Fe(CN)6, 0.5 mM K4Fe(CN)6, 0.15 mM Resazurin and 100 mM Phosphate Buffer) was added to the wells, incubated for 4 hours at 37° C. and 5% CO2 before RFU's (Relative Fluorescence Units) (ex. 540 nm., em. 590 nm.) were measured in a fluorescence plate reader.
(§2) In this assay, the inhibitory effect of different compound concentrations (range 10 μM to 0.1 nM) was determined and used to calculate an IC50 (M) and pIC50 (−log IC50) value. As a counterscreen the same experiment was performed in the presence of 10 ng/ml murine IL3.

[2] = target: T2, Ba/F3-FGFR3-transfected cells (Homo sapiens, UniProt P22607, cells depend on it, form not given); test: Ba/F3-FGFR3 (minus IL3 or plus IL3) cellular proliferation assay; assay type: cell-based; conditions: 24 hours, Alamar Blue
T2 construct: BAF3-FGFR3 (MIN IL3 pIC50); other: minus IL3; 24 hours, Alamar Blue
T2 sequence (P22607 whole entry, looked up, change not shown): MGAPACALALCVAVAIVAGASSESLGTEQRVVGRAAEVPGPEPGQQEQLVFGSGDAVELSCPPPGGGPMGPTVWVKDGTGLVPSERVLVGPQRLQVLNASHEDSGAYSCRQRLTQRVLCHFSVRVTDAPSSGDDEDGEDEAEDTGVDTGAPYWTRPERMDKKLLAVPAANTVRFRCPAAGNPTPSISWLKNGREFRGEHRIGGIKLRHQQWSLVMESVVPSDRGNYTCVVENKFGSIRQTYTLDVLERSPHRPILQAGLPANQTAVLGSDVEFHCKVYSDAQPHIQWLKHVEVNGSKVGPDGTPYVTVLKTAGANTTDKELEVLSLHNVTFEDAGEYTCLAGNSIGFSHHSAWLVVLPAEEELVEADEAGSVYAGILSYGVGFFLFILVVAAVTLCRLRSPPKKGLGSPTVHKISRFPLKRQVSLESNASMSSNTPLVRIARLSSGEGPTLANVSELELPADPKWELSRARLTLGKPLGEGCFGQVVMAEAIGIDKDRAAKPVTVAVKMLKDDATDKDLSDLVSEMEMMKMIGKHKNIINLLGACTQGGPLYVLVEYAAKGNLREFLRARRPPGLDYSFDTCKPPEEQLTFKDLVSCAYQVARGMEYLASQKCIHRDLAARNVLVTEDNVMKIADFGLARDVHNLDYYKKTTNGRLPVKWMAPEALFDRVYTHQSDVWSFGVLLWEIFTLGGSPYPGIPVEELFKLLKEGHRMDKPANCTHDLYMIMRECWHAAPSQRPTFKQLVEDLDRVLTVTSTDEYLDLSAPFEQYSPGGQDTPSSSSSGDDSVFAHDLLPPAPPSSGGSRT
Method: Ba/F3-FGFR3 (Minus IL3 or Plus IL3) (Cellular Proliferation Assay)
as §1, with “Ba/F3-FGFR3-transfected” for “Ba/F3-KDR-transfected”
as §2

[3] = target: T3, Ba/F3-FGFR1-transfected cells (Homo sapiens, UniProt P11362); test: Ba/F3-FGFR1 (minus IL3 or plus IL3) cellular proliferation assay; assay type: cell-based; conditions: 24 hours, Alamar Blue
T3 construct: other: minus IL3; 24 hours, Alamar Blue
T3 sequence (P11362 whole entry, change not shown): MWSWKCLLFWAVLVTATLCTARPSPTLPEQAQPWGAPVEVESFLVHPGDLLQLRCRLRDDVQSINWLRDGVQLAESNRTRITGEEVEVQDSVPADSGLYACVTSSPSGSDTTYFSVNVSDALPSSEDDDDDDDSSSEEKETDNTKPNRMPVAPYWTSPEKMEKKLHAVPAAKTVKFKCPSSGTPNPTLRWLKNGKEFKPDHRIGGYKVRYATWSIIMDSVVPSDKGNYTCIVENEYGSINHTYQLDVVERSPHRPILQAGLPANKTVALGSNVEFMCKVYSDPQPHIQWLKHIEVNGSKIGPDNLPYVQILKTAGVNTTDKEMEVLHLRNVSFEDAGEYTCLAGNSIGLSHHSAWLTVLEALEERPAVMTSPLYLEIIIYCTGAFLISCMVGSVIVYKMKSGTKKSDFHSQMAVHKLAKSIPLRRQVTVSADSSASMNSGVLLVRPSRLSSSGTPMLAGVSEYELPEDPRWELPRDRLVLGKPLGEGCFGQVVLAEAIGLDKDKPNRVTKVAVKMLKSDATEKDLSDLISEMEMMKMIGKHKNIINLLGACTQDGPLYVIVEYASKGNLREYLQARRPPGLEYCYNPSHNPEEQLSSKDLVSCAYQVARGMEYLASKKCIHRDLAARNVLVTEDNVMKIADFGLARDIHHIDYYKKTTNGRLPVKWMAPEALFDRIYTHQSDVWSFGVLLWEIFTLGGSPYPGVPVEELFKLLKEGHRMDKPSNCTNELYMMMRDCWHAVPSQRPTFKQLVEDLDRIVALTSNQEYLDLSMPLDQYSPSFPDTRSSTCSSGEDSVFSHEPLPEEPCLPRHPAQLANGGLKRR
Method: Ba/F3-FGFR1 (Minus IL3 or Plus IL3) (Cellular Proliferation Assay)
as §1, with “Ba/F3-FGFR1-transfected” for “Ba/F3-KDR-transfected”
as §2

FGFR4 (h) = FGFR4 (h) (Homo sapiens, UniProt P22455); test: FGFR4 (enzymatic assay), TR-FRET; assay type: biochemical; conditions: 5 μM ATP; pIC50 = -log IC50 (M); read-out: FGFR 4 pIC50 (converted)
FGFR4 (h), sequence (P22455 22-802): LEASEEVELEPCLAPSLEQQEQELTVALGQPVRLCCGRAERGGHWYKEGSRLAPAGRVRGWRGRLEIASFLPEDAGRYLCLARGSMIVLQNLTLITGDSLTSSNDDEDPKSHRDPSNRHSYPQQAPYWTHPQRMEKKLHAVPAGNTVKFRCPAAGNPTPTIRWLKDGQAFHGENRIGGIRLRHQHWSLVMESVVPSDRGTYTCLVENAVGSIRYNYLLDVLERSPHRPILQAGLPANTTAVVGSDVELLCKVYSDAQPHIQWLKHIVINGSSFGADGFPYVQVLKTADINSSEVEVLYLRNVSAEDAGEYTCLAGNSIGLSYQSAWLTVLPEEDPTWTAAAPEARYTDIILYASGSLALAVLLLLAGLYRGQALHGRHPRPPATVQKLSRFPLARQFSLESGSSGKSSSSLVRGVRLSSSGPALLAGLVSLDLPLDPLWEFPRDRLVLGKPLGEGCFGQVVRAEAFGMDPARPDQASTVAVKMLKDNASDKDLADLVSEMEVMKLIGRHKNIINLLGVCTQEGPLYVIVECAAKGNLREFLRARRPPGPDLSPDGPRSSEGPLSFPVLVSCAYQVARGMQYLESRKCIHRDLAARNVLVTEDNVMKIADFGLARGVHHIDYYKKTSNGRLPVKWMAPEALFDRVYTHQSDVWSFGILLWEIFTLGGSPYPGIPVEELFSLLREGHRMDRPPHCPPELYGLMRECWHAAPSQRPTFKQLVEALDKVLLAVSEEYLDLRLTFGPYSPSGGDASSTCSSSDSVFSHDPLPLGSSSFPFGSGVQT

FGFR3 (h) = FGFR3 (h) (Homo sapiens, UniProt P22607); test: FGFR3 (enzymatic assay), TR-FRET; assay type: biochemical
FGFR3 (h), sequence (P22607 23-806): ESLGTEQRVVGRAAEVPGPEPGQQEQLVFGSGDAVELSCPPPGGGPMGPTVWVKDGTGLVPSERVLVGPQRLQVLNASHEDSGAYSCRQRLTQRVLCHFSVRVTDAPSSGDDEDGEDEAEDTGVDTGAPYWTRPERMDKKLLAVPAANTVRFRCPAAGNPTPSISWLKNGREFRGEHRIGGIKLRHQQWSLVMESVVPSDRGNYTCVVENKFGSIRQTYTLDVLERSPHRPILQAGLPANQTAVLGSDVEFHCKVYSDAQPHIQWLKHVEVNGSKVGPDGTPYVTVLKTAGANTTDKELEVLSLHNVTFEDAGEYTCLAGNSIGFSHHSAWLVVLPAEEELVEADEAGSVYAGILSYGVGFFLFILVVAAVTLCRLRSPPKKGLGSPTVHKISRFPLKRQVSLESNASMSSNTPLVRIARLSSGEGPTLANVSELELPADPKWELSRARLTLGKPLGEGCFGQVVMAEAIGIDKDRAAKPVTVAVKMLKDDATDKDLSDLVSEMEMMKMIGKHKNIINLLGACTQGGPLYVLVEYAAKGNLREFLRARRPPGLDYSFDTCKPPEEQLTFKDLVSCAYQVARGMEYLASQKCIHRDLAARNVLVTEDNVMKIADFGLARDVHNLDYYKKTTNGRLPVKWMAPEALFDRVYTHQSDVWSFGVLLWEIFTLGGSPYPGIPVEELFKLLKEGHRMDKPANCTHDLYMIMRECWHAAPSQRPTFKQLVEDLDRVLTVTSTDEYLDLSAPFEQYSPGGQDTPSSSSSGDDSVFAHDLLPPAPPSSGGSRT

FGFR2 (h) = FGFR2 (h) (Homo sapiens, UniProt P21802); test: FGFR2 (enzymatic assay), TR-FRET; assay type: biochemical
FGFR2 (h), sequence (P21802 22-821): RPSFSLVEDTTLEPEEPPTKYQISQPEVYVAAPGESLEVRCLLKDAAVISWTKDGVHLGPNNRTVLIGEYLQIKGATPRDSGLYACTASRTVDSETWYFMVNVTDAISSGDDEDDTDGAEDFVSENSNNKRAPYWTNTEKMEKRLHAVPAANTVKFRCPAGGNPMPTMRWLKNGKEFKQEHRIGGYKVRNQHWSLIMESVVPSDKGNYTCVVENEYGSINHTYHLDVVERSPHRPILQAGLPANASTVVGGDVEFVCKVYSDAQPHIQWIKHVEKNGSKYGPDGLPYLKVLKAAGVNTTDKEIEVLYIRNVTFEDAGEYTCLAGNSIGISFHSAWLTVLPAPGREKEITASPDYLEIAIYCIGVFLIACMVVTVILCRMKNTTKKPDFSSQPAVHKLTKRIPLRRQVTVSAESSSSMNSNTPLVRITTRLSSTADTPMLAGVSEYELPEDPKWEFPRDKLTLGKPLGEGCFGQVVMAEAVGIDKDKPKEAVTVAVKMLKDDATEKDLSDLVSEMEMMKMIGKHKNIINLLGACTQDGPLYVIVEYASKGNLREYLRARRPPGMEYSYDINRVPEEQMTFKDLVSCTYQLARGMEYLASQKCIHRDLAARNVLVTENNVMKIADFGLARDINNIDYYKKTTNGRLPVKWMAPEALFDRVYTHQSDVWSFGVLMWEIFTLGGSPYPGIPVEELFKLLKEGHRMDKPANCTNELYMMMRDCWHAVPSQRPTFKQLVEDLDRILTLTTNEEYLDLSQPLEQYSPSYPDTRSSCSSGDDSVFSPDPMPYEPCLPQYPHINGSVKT

[4] = target: Ba/F3-FGFR4-transfected cells (Homo sapiens, UniProt P22455, cells depend on it, form not given); test: Ba/F3-FGFR4 cellular proliferation assay; assay type: cell-based; conditions: 24 hours, Alamar Blue
Method: Ba/F3-FGFR4 (Cellular Proliferation Assay)
as §1, with “Ba/F3-FGFR4-transfected” for “Ba/F3-KDR-transfected”
In this assay, the inhibitory effect of different compound concentrations (range 10 μM to 0.1 nM) was determined and used to calculate an IC50 (M) and pIC50 (−log IC50) value.

[5] = 25 μM ATP, pIC50 = -log IC50 (M), read-out: FGFR3 pIC50 (converted)
[6] = 0.4 μM ATP, pIC50 = -log IC50 (M), read-out: FGFR 2 pIC50 (converted)

Row | SMILES | IC50 (KDR (h)) [M] | IC50 (FGFR1 (h)) [nM] | BAF3-KDR (MIN IL3 pIC50) [1] | BAF3-FGFR3 (MIN IL3 pIC50) [2] | BAF3-FGFR1 (MIN IL3 pIC50) [3] | melting point [°C] | IC50 (FGFR4 (h)) [M] | IC50 (FGFR3 (h); [5]) [M] | IC50 (FGFR2 (h); [6]) [M] | BAF3-FGFR4 (pIC50) [4] | IC50 (FGFR3 (h)) [M] | IC50 (FGFR2 (h)) [M]
1 | COc1cc(OC)c(F)c(N(CCO)c2ccc3ncn(-c4ccccc4)c(=O)c3c2)c1F [Compound 1] | 2.51e-07 | 10 | ~5 | 6.4 | 6.0 | 169 | 3.98e-08 | 6.31e-09 | 6.31e-09 | 5.6 |  | 
2 | COc1cc(OC)c(F)c(N(CCNC(C)C)c2ccc3ncn(-c4ccccc4)c(=O)c3c2)c1F [Compound 2] | 2.51e-07 | 6.31 | 5.7 | 7.6 | 7.7 | 124 | 3.98e-08 | 2.51e-08 | 2.51e-08 | 6.3 |  | 
3 | COc1cc(OC)c(F)c(N(Cc2ncc[nH]2)c2ccc3ncn(-c4ccccc4)c(=O)c3c2)c1F [Compound 4] | > 1e-06 | 15.8 | <5 | 6.2 | 6.1 |  | 2.51e-08 | 7.94e-09 | 1.26e-08 | 5.4 |  | 
4 | COc1cc(OC)c(Cl)c(N(CCO)c2ccc3ncn(-c4ccccc4)c(=O)c3c2)c1Cl [Compound 5] | ~1e-06 | 63.1 | <5 | 5.3 | 5.5 | 251 | 5.01e-07 | 2.51e-08 | 3.98e-08 | <5 |  | 
5 | COc1cc(OC)c(F)c(N(CCO)c2ccc3ncn(-c4ccccc4)c(=O)c3c2)c1 [Compound 6] | > 1e-06 | 79.4 | <5 | 5.5 | 5.5 | 183 | 3.16e-07 |  | 5.01e-08 | 5.0 | 3.98e-08 | 
6 | COc1cc(OC)cc(N(CCO)c2ccc3ncn(-c4cnn(C)c4)c(=O)c3c2)c1 [Compound 8] | 7.94e-07 | 50.1 | <5 | 5.6 | 5.4 | 185 | 1.58e-07 | 2e-08 | 2.51e-08 | 5.2 |  | 
7 | COc1cc(OC)cc(N(CCNC(C)C)c2ccc3ncn(-c4cnn(C)c4)c(=O)c3c2)c1 [Compound 9] | 5.01e-07 | 5.01 | 5.2 | ~7.09 | 7.2 | 142 | 5.01e-08 | 1e-08 | 6.31e-09 | 6.2 |  | 
8 | COc1cc(OC)c(Cl)c(N(CCO)c2ccc3ncn(-c4cnn(C)c4)c(=O)c3c2)c1Cl [Compound 10] | 5.01e-07 | 12.6 | ~5 | 6.3 | 6.2 | 223 | 2e-07 | 7.94e-09 | 1.58e-08 | 5.1 |  | 
9 | COc1cc(OC)c(Cl)c(N(Cc2ncc[nH]2)c2ccc3ncn(-c4cnn(C)c4)c(=O)c3c2)c1Cl [Compound 13] | 2.51e-07 | 15.8 | 5.1 | 5.9 | 5.5 |  | 1.26e-07 | 1.26e-08 |  | 5.2 |  | 1.58e-08
10 | COc1cccc(C(=O)c2ccc3ncn(-c4cnn(C)c4)c(=O)c3c2)c1 [Compound 23] | > 1e-06 | > 1000 | <5 | <5 | <5 |  | > 1e-06 | > 1e-06 | > 1e-06 | <5 |  | 

Source: patent US9493426B2, “Quinazolinone derivatives useful as FGFR kinase modulators” (priority 2013, dated 2016)
